Common to all, as to format: binding
Test [1] has as its target BirA (E. coli biotin protein ligase; BirA wt) (Escherichia coli, UniProt P06709, K183A). The experiment in a line: ITC, direct titration, single-site model.
Test [2] has as its target BirA (E. coli biotin protein ligase; BirA wt) (Escherichia coli, UniProt P06709, R118A). Description: ITC, direct titration, single-site model.
The target of test [3] is BirA (E. coli biotin protein ligase; BirA wt) (Escherichia coli, UniProt P06709, E313A). Description: ITC, direct titration, single-site model.
For test [4], the target named is BirA (E. coli biotin protein ligase; BirA wt) (Escherichia coli, UniProt P06709). Description: ITC, TAPS, proton linkage. To be noted: pH 6.0; 10 mM Bistris, citrate or MES with 200 mM KCl, 2.5 mM MgCl2.

For the molecule `Nc1ncnc2c1ncn2[C@@H]1O[C@H](COP(=O)(O)OC(=O)CCCC[C@@H]2SC[C@@H]3NC(=O)N[C@@H]32)[C@@H](O)[C@H]1O` [bio-5'-AMP], the figures for the Kd in test [1], in test [2] and in test [3] were 0.022 µM, 0.0013 µM and 0.01 µM, respectively.

For the molecule `Nc1ncnc2c1ncn2[C@@H]1O[C@H](COP(=O)(O)OCCCCC[C@@H]2SC[C@@H]3NC(=O)N[C@@H]32)[C@@H](O)[C@H]1O` [btnOH-AMP], the “ITC, TAPS, proton linkage (enthalpy only)” value in test [4] is recorded as “btnOH-AMP binding to BirA^wt is linked to proton release”.

The values above are taken from paper PMC7759012 (Biochemistry, 2020).
